Experimental data reported in patent US20050221328A1, “Inhibitors of inflammatory gene activity and cholesterol biosynthesis” (Wyeth, priority 2002, published 2005).

Assays:
[1] = tested on: Fnk, JAB, LIX, bcl-3 and SHP; assay: Liver expression of Fnk, JAB, LIX, bcl-3 and SHP by realtime PCR after estrogen receptor ligand pretreatment and IL-1β; details: 100 ug/kg/day EE, 5 mg/kg/day raloxifene
Experimental: Referring to FIG. 3a, to distinguish these two mechanisms, the IL-1β fold induction of Fnk, JAB, LIX, and bcl-3 and the IL-1β fold repression of SHP was quantified in animals pretreated with vehicle (black bars) or 100 ug/kg/day EE (grey bars). Liver RNA levels of each gene (mean +/−SEM) were determined by realtime PCR of RNA from each individual animal.
Referring to FIGS. 4a, 4b, 4c, 4d and 4e, experiments were conducted to determine whether EE blocks IL-1β induction of gene expression by an estrogen receptor (ER) dependent mechanism. Estrogens can regulate gene expression by many mechanisms including ER independent pathways such as antioxidant mechanisms. […] Liver expression levels of Fnk, JAB, LIX, bcl-3 and SHP (mean +/−SEM) were determined by realtime PCR.
Referring to FIGS. 5a, 5b, 5c, 5d, and 5e, experiments were conducted to determine whether ERα is required for EE regulation of gene expression in the liver. To determine whether ERα or ERβ mediated the EE effects on IL-1β gene expression in the liver, C57BL/6 wild type mice, C57BL/6 ERαKO mice, or 129 ERβKO mice were pretreated with vehicle (black bars) or […] EE (gray bars) for 5 days followed by a 1 hour treatment with IL-1β. Liver expression levels of Fnk, JAB, LIX, bcl-3, and SHP (mean +/−SEM) were quantified by realtime PCR, with expression in animals receiving vehicle+PBS defined as 1.0.

[2] = tested on: prostaglandin D synthase, IPS; assay: Liver expression of prostaglandin D synthase and IPS; format: in vivo; details: mouse liver; 30 mg/kg/day genistein, 5 mg/kg/day raloxifene
Source text: Referring to FIGS. 6a and 6b, experiments were constructed and performed to establish that EE induction of gene expression is not required for ERα inhibition of IL-1β gene inductions. […] The expression level in the vehicle+PBS treated mice was defined as 1.0. […] However, there was no correlation between the ability of these compounds to inhibit IL-1β gene induction (EE>genistein>raloxifene) and the ability of these compounds to stimulate prostaglandin D synthase expression (EE>>raloxifene>genistein).

## O=c1c(-c2ccc(O)cc2)coc2cc(O)cc(O)c12 [Genistein, genistein]
[1]; mice, 1 or 10 mg/kg/day E2, 30 mg/kg/day genistein, 10 mg/kg/day ICI182780, plus IL-1β
  effect on regulation of liver Fnk, JAB, LIX, bcl-3 and SHP expression vs IL-1β alone: magnitude was not as great
[1]; mouse liver, 30 mg/kg/day genistein
  inhibition of IL-1β induction of Fnk, JAB, LIX and bcl-3: inhibited
[2]
  induction of IPS: no induction
